Experimental findings from PMC6968712, “SPA: a peptide antagonist that acts as a cell-penetrating peptide for drug delivery” (Drug Delivery, 2019) are described below.

Where a SMILES comes first, the peptide text is derived from it. Where no end group is shown, it is not given here. [ ]: non-standard residue; d: D form.

One series relates to trypsin. Nature of the series: Enzymatic stability toward trypsin. The format is in vitro ADME. The following applies: 15 μL 10 mM peptide in 285 μL trypsin solution (10 μg/mL), 37 °C, after incubation for 360 min as printed, RP-HPLC, triplicate. As to the method:
The enzymatic stability of SPA toward trypsin and mice serum was determined following a procedure reported in our previous study (Song et al., [2013]). A portion of 15 μL peptide stock solution (10 mM) was added to 285 μL trypsin solution (10 μg/mL) or 100% serum. […] A portion of 40 μL aliquots were diluted with 80 μL water/acetonitrile (60:40 v/v) containing 1% TFA and analyzed by RP-HPLC (Waters). The peptides were eluted using a liner gradient of 5–95% acetonitrile in 0.1% trifluoroacetic acid at a flow rate of 1 mL/min within 30 min on a C18 column (Waters XBridge Columns, 10 μM, 4.6*250 mm). The remaining full-length peptide concentration was normalized with respect to the initial concentration.

A short description of series [1]: Enzymatic stability in serum. It counts as in vitro ADME. The note with it: 15 μL 10 mM peptide in 285 μL 100% mice serum, 37 °C, 0–3 h, RP-HPLC, triplicate. As to the method:
The enzymatic stability of SPA toward trypsin and mice serum was determined following a procedure reported in our previous study (Song et al., [2013]). A portion of 15 μL peptide stock solution (10 mM) was added to 285 μL trypsin solution (10 μg/mL) or 100% serum. Incubations were carried out at 37 °C for 0, 0.5, 1, 2 and 3 h in triplicate. A portion of 40 μL aliquots were diluted with 80 μL water/acetonitrile (60:40 v/v) containing 1% TFA and analyzed by RP-HPLC (Waters). The peptides were eluted using a liner gradient of 5–95% acetonitrile in 0.1% trifluoroacetic acid at a flow rate of 1 mL/min within 30 min on a C18 column (Waters XBridge Columns, 10 μM, 4.6*250 mm). The remaining full-length peptide concentration was normalized with respect to the initial concentration.

The nature of series [2]: RP-HPLC retention time as measure of peptide hydrophobicity. The format is physicochemical. The following applies: Table S1; chromatographic, C18 (Waters XBridge, 4.6*250 mm), linear gradient 5–95% acetonitrile in 0.1% trifluoroacetic acid within 30 min, 1 mL/min.
Procedure: Purity analysis was checked by analytical RP-HPLC (Waters), and the peptides were eluted using a liner gradient of 5–95% acetonitrile in 0.1% trifluoroacetic acid at a flow rate of 1 mL/min within 30 min on a C18 column (Waters XBridge Columns, 10 μM, 4.6*250 mm). The retention time of each peptide was determined when the peak was at its maximum height.
In series [3] the test system is CHO cells. Nature of the series: Flow cytometry assay of cellular uptake. It counts as cell-based. The following applies: 1 h. As to the method:
CHO cells were treated with 10 μM FITC labeled peptides for 1 h, and then the cells were harvested and finally resuspended in PBS after washing twice with PBS. The fluorescence of cells was analyzed on a FACS Caliber. To explore the uptake mechanism of SPA, CHO cells were preincubated at 4 °C and then treated with 10 μM FITC-labeled SPA at 4 °C or 37 °C for 1 h. In experiments with chloroquine, CHO cells were incubated with FITC-labeled SPA and 100 μM chloroquine at 37 °C for 1 h. In experiments with endocytosis inhibitor, cells were pretreated with 10 μg/mL chlorpromazine, 50 μM amiloride or 5 mM methyl-β-cyclodextrin at 37 °C for 0.5 h and then treated with 10 μM FITC-labeled SPA for 1 h. Cells were harvested and analyzed by a FACS Caliber (BD).
In general terms: Flow cytometry measures light scatter and fluorescence of single cells or particles in a stream.

The test system of series [4] is CHO cells. As to the kind of experiment: LDH leakage assay. The note with it: 1 h, 100% = 0.2% Triton X-100. The format is cell-based. As to the method:
The LDH leakage was measured using the Cytotoxicity Detection Kit (Roche). CHO cells were seeded at 1 × 10^4 cells/well in 96-well plate 24 h before treatment. After treatment with SPA at various concentrations for 1 h, 40 μL medium was transferred to a 96-well plate and incubated for 15 min with 40 μL reaction mixture, followed by 20 μL stop solution. […] was measured using microplate reader (Thermo scientific) at 490 nm. Untreated cells were defined as no leakage and 100% leakage was defined as total LDH release by lysing cells in 0.2% Triton X-100.

The test system of a further series is Erythrocytes. Nature of the series: Hemolysis assay. The format is cell-based. The following applies: mice erythrocytes, even at 200 μM, 1 h, 37 °C. As to the method: Erythrocytes were obtained from freshly collected mice blood and resuspended in PBS to 4% (V/V). After 100 μL the erythrocyte suspension being seeded in 96-well plate, the cells were incubated with 100 μL peptides solution at different concentrations for 1 h at 37 °C. The plates were centrifuged at 1000 g for 10 min and the released hemoglobin was determined using microplate reader (Thermo scientific) at 450 nm. PBS and 0.1% Triton X-100 were used as agents for 0 and 100% hemolysis, respectively.

Series [5] deals with CHO cells. As to the kind of experiment: MTT cytotoxicity assay of SPA (24 h). The following applies: various concentrations. It counts as cell-based. As for the experimental part:
Cells were treated with SPA at various concentrations for 24 h. The cytotoxicity of SPA was determined by MTT assay. The absorbance was determined using microplate reader (Thermo scientific) at 570 nm.
On the technique in general: Tetrazolium dyes change colour on reduction, which living cells bring about.

The subject of series [6] is CHO cells. Nature of the series: MTT antiproliferative assay of SPA-CPT conjugate. The note with it: treated 1 h, washed, cultured 72 h. The format is cell-based.
Procedure: CHO, MDA-MB-231and U251 cells were seeded at 5 × 10^3 cells/well in 96-well plates 24 h before treatment, respectively. […] After washing with medium to remove the remaining agents, the cells were cultured for 72 h and the antiproliferative effects of the relevant agents were determined by the MTT assay.

With RPKPWQWFWLL-NH2 [L-SPA], in the series on trypsin, the “stability against trypsin (remaining full-length peptide)” value is listed as “almost completely degraded”. Also, the “stability in serum (remaining full-length peptide)” value in series [1] is “SPA exhibited significantly greater stability in serum than L-SPA”.
“FITC-AHX-rPKPwQwFwLL-NH2 [FITC-SPA, SPA labeled with FITC at the N-terminus via an aminohexanoic acid spacer]”: in series [2], the “retention time” value was 21.2 min. The “mean fluorescence on cotreatment with chloroquine” value in the series with CHO cells [3] (10 μM FITC-labeled SPA with 100 μM chloroquine, 37 °C) is recorded as “significantly increased”.
Turning to `CC[C@H](C)[C@H](NC(=O)CN)C(=O)NCC(=O)N[C@@H](C)C(=O)N[C@H](C(=O)N[C@@H](CC(C)C)C(=O)N[C@@H](CCCCN)C(=O)N[C@H](C(=O)N[C@@H](CC(C)C)C(=O)N[C@H](C(=O)N[C@H](C(=O)NCC(=O)N[C@@H](CC(C)C)C(=O)N1CCC[C@H]1C(=O)N[C@@H](C)C(=O)N[C@@H](CC(C)C)C(=O)N[C@H](C(=O)N[C@@H](CO)C(=O)N[C@@H](Cc1c[nH]c2ccccc12)C(=O)N[C@H](C(=O)N[C@@H](CCCCN)C(=O)N[C@@H](CCCNC(=N)N)C(=O)N[C@@H](CCCCN)C(=O)N[C@@H](CCCNC(=N)N)C(=O)N[C@@H](CCC(N)=O)C(=O)N[C@@H](CCC(N)=O)C(N)=O)[C@@H](C)CC)[C@@H](C)CC)[C@@H](C)O)[C@@H](C)O)C(C)C)C(C)C` [melittin, reference compound], the LDH leakage with CHO cells [4] (50 μM (positive control)) is recorded as roughly 100%.
As for `CC(C)C[C@H](NC(=O)[C@H](CC(C)C)NC(=O)[C@@H](Cc1c[nH]c2ccccc12)NC(=O)[C@H](Cc1ccccc1)NC(=O)[C@@H](Cc1c[nH]c2ccccc12)NC(=O)[C@H](CCC(N)=O)NC(=O)[C@@H](Cc1c[nH]c2ccccc12)NC(=O)[C@@H]1CCCN1C(=O)[C@H](CCCCN)NC(=O)[C@@H]1CCCN1C(=O)[C@H](N)CCCN=C(N)N)C(N)=O` [SPA, [D-Arg^1, D-Trp^5,7,9, Leu^11]Substance P] (H-[dR]PKP[dW]Q[dW]F[dW]LL-NH2), the “stability against trypsin (remaining full-length peptide)” value in the series with trypsin is reported as “not hydrolyzed”. Also, the hemolytic activity entry in the series on Erythrocytes was “low hemolytic activity”. Besides, the LDH leakage in the series on CHO cells [4] (160 μM) is listed as 35%. Besides, the “cytotoxicity (MTT)” value in the series on CHO cells [5] is “low cytotoxicity”. The “cytotoxicity / antiproliferative effect (MTT)” value in the series on CHO cells [6] is on record as “no notable cytotoxicity”. Also, the “stability in serum (remaining full-length peptide)” value in series [1] was “significantly greater stability in serum than L-SPA”.
As to “FITC-AHX-YGRKKRRQRRR-NH2 [FITC-TAT, FITC-labeled cell-penetrating peptide TAT used as uptake comparator, reference compound]”, the “retention time” value in series [2] is recorded as 16.0 min. Also, the “cellular uptake efficiency (mean fluorescence intensity)” value in the series with CHO cells [3] (10 μM FITC labeled peptides, flow cytometry) was “cellular uptake efficiency of SPA was lower than that of TAT”.
